Measurements reported in article PMC4393105, “tRNA^Glu Increases the Affinity of Glutamyl-tRNA Synthetase for Its Inhibitor Glutamyl-Sulfamoyl-Adenosine, an Analogue of the Aminoacylation Reaction Intermediate Glutamyl-AMP: Mechanistic and Evolutionary Implications” (PLoS ONE, 2015).
Values joined by “and” are separate entries in the source; they are usually repeats but may differ in a detail not shown here. Identical values can stand only once.

Molecular target: T1, E. coli GluRS (Escherichia coli, UniProt P04805)
T1 construct: His tag (histidine tag) (C); made in house
Assay: Isothermal titration microcalorimetry of Glu-AMS binding to GluRS in the absence of tRNA
Conditions: no tRNA; for Kd: Kd (dissociation constant), Kd = 1/Kb
Protocol: Overproduction and purification of E. coli GluRS were performed as previously described with the following modifications. A C-terminal histidine-tagged GluRS was used instead of the N-terminal tagged one. The overproduction was induced overnight at 30°C with 1 mM IPTG.
The GluRS solution with or without tRNA was dialyzed overnight in a D-tube dialyzer (Novagen) against 2 L of dialysis buffer (50 mM HEPES-KOH, pH 7.2, 10 mM MgCl2) at 4°C with light stirring. The next morning, the dialyzed solution was recovered and the volume adjusted by adding dialysis buffer to obtain the desired concentration (typically 9 μM GluRS and 11 μM tRNA^Glu). This solution was kept on ice until use. Glu-AMS was diluted in the dialysis buffer to obtain a final concentration of 90 μM. All buffers and solutions were degased with stirring under vacuum. The microcalorimetry experiments were carried out in a VP-ITC 100 microcalorimeter (MicroCal, GE Healthcare) using deionized water as an internal reference for all assays. VPViewer ITC 2000 and Origin v 5.0 softwares (Microcal Software, Inc) were used for data collection and analysis, respectively.
To measure the thermodynamic parameters of the interaction between Glu-AMS and GluRS, in the presence and in the absence of tRNA, a solution containing 9 μM GluRS with or without a stoichiometric excess of tRNA^Glu or S. cerevisiae tRNA^Phe (Table 1) was placed in the sample cell of the microcalorimeter. The following conditions were used for all tests: reference power was set at 12 μcal/s and stirring at 300 rpm, the “high” feedback mode and “No check Temp”, “Fast Equil” and “Auto” ITC equilibration options were selected. The 90 μM Glu-AMS solution was loaded in the injection syringe. After a first injection of 1 μL over 2 s, a series of 39 injections (7.4 μL over 14.8 s) with 240 s between injections was performed. Injections of Glu-AMS in GluRS alone, GluRS•tRNA^Glu or GluRS•tRNA^Phe, were performed at 30°C (303 K), and done in duplicate. Injections of Glu-AMS in GluRS were also performed at 20°C and 37°C (293 and 310 K): 14 injections (20 μL over 40 s) followed the first injection of 1 μL. Each temperature was tested in duplicate, and in triplicate at 37°C.
The following nomenclature was used to describe the interaction at equilibrium between Glu-AMS and either GluRS or a GluRS•tRNA complex: GluRS•Glu-AMS↔GluRS+[…] Kd=[GluRS]×[Glu-AMS]/[GluRS•Glu-AMS] 1/Kd=Kb (binding constant, sometimes referred to as Ka).

[1] = single ITC run, 293 K, [ligand] 90 µM, [GluRS] 4.15 µM
[2] = single ITC run, 293 K, [ligand] 90 µM, [GluRS] 4.35 µM
[3] = single ITC run, 303 K, [ligand] 90 µM, [GluRS] 4.143 µM
[4] = single ITC run, 303 K, [ligand] 90 µM, [GluRS] 5.355 µM
[5] = single ITC run, 310 K, [ligand] 90 µM, [GluRS] 3.169 µM
[6] = single ITC run, 310 K, [ligand] 90 µM, [GluRS] 3.931 µM
[7] = single ITC run, 310 K, [ligand] 90 µM, [GluRS] 4.015 µM
[8] = 30°C (303 K), weighted mean of ITC runs

T1 sequence (P04805 whole entry): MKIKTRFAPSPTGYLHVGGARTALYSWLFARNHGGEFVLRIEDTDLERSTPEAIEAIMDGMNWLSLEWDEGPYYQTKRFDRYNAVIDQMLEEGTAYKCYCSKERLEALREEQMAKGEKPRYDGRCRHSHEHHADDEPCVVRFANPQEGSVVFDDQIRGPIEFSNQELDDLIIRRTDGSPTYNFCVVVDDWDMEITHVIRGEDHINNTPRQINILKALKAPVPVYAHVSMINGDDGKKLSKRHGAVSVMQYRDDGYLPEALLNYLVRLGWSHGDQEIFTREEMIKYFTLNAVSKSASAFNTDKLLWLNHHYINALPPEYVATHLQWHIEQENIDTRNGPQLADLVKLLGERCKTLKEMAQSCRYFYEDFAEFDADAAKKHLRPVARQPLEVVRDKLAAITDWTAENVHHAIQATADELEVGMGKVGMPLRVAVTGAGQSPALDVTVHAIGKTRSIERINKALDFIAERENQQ

Question: For Nc1ncnc2c1ncn2[C@@H]1O[C@H](COS(=O)(=O)NC(=O)[C@@H](N)CCC(=O)O)[C@@H](O)[C@H]1O [Glu-AMS, 5’-O-[N-(L-glutamyl)sulfamoyl]adenosine], which Kd [1] is on record?
Answer: 545 ± 162 nM

Question: What about the Kd [2] of the same molecule?
Answer: 547 ± 150 nM

Question: And the Kd [3]?
Answer: 281 ± 39 nM

Question: And the Kd [4]?
Answer: 307 ± 28 nM

Question: And the Kd [5]?
Answer: 256 ± 20 nM

Question: And the Kd [6]?
Answer: 318 ± 82 nM

Question: What about the Kd [7] of the same molecule?
Answer: 231 ± 37 nM

Question: And the “-TΔSb” value [8]?
Answer: -3.996 ± 0.05 kcal/mol

Question: And the “n (stoichiometry coefficient)” value [8]?
Answer: 0.9998 ± 0.0094

Question: What about the “ΔHb (reaction enthalpy)” value [8] of the same molecule?
Answer: -5.041 ± 0.063 kcal/mol

Question: What about the “ΔSb (reaction entropy)” value [8] of the same molecule?
Answer: 13.2 cal/mol·K and 13.19 ± 0.16 cal/mol·K

Question: What about the “-TΔSb” value (293 K, mean of ITC runs) of the same molecule?
Answer: -4.479 ± 0.218 kcal/mol

Question: What about the “n (stoichiometry coefficient)” value (293 K, mean of ITC runs) of the same molecule?
Answer: 1.0097 ± 0.0369

Question: And the “ΔHb (reaction enthalpy)” value (293 K, mean of ITC runs)?
Answer: -3.929 ± 0.191 kcal/mol

Question: And the “ΔSb (reaction entropy)” value (293 K, mean of ITC runs)?
Answer: 15.29 ± 0.74 cal/mol·K

Question: What about the “ΔGb (reaction energy)” value (293 K, mean of ITC runs, ΔGb = -RT Ln Kb) of the same molecule?
Answer: -8.396 ± 0.0016 kcal/mol

Question: And the “-TΔSb” value (310 K, mean of ITC runs)?
Answer: -2.835 ± 0.036 kcal/mol

Question: What about the “n (stoichiometry coefficient)” value (310 K, mean of ITC runs) of the same molecule?
Answer: 1.0016 ± 0.0095

Question: What about the “ΔHb (reaction enthalpy)” value (310 K, mean of ITC runs) of the same molecule?
Answer: -6.395 ± 0.081 kcal/mol

Question: And the “ΔSb (reaction entropy)” value (310 K, mean of ITC runs)?
Answer: 9.146 ± 0.117 cal/mol·K

Question: What about the “ΔGb (reaction energy)” value (310 K, mean of ITC runs, ΔGb = -RT Ln Kb) of the same molecule?
Answer: -9.326 ± 0.1 kcal/mol

Question: And the “change in heat capacity (ΔCp)” value (from ΔHb at 293, 303 and 310 K)?
Answer: -143 ± 23 cal/mol·K

Question: And the “-TΔSb” value [1]?
Answer: -4495 ± 320

Question: And the “n (stoichiometry coefficient)” value [1]?
Answer: 1.014 ± 0.054

Question: What about the “ΔGb (reaction energy)” value [1] of the same molecule?
Answer: -8.397 kcal/mol

Question: What about the “ΔHb (reaction enthalpy)” value [1] of the same molecule?
Answer: -3.909 ± 0.279 kcal/mol

Question: What about the “ΔSb (reaction entropy)” value [1] of the same molecule?
Answer: 15.34 ± 1.09 cal/mol·K

Question: And the “-TΔSb” value [2]?
Answer: -4465 ± 297

Question: What about the “n (stoichiometry coefficient)” value [2] of the same molecule?
Answer: 1.006 ± 0.050

Question: What about the “ΔGb (reaction energy)” value [2] of the same molecule?
Answer: -8.395 kcal/mol

Question: What about the “ΔHb (reaction enthalpy)” value [2] of the same molecule?
Answer: -3.946 ± 0.263 kcal/mol

Question: And the “ΔSb (reaction entropy)” value [2]?
Answer: 15.24 ± 1.01 cal/mol·K

Question: What about the “-TΔSb” value [3] of the same molecule?
Answer: -3936 ± 97

Question: And the “n (stoichiometry coefficient)” value [3]?
Answer: 0.9963 ± 0.0184

Question: What about the “ΔGb (reaction energy)” value [3] of the same molecule?
Answer: -9.083 kcal/mol

Question: What about the “ΔHb (reaction enthalpy)” value [3] of the same molecule?
Answer: -5.142 ± 0.127 kcal/mol

Question: And the “ΔSb (reaction entropy)” value [3]?
Answer: 12.99 ± 0.32 cal/mol·K

Question: What about the “-TΔSb” value [4] of the same molecule?
Answer: -4018 ± 58

Question: And the “n (stoichiometry coefficient)” value [4]?
Answer: 1.001 ± 0.011

Question: And the “ΔGb (reaction energy)” value [4]?
Answer: -9.029 kcal/mol

Question: What about the “ΔHb (reaction enthalpy)” value [4] of the same molecule?
Answer: -5.007 ± 0.073 kcal/mol

Question: What about the “ΔSb (reaction entropy)” value [4] of the same molecule?
Answer: 13.26 ± 0.19 cal/mol·K

Question: And the “-TΔSb” value [5]?
Answer: -2680 ± 41

Question: And the “n (stoichiometry coefficient)” value [5]?
Answer: 0.9997 ± 0.0114

Question: And the “ΔGb (reaction energy)” value [5]?
Answer: -9.349 kcal/mol

Question: What about the “ΔHb (reaction enthalpy)” value [5] of the same molecule?
Answer: -6.654 ± 0.102 kcal/mol

Question: What about the “ΔSb (reaction entropy)” value [5] of the same molecule?
Answer: 8.646 ± 0.132 cal/mol·K

Question: And the “-TΔSb” value [6]?
Answer: -2978 ± 147

Question: What about the “n (stoichiometry coefficient)” value [6] of the same molecule?
Answer: 1.005 ± 0.037

Question: What about the “ΔGb (reaction energy)” value [6] of the same molecule?
Answer: -9.217 kcal/mol

Question: And the “ΔHb (reaction enthalpy)” value [6]?
Answer: -6.225 ± 0.307 kcal/mol

Question: And the “ΔSb (reaction entropy)” value [6]?
Answer: 9.607 ± 0.473 cal/mol·K

Question: What about the “-TΔSb” value [7] of the same molecule?
Answer: -3531 ± 90

Question: What about the “n (stoichiometry coefficient)” value [7] of the same molecule?
Answer: 1.006 ± 0.019

Question: What about the “ΔGb (reaction energy)” value [7] of the same molecule?
Answer: -9.413 kcal/mol

Question: And the “ΔHb (reaction enthalpy)” value [7]?
Answer: -5.873 ± 0.15 kcal/mol

Question: What about the “ΔSb (reaction entropy)” value [7] of the same molecule?
Answer: 11.39 ± 0.29 cal/mol·K
